# Test results from the Biogen ADME set (Fang et al. 2023).
# Settings: for aqueous solubility: pH 6.8
MDR1-MDCK efflux ratio,"intrinsic clearance, human liver microsomes [mL/min/kg]","intrinsic clearance, rat liver microsomes [mL/min/kg]",aqueous solubility [µg/mL],"fraction unbound, human plasma","fraction unbound, rat plasma",Structure (SMILES)
22.5,≤ 4.74,23.4,54.1,–,–,COc1cc2c(cc1OC)-c1cc3ccc(OC)c(OC)c3c[n+]1CC2
16.9,16,308,–,–,–,Cn1cnnc1-c1cccc(NS(=O)(=O)c2cc3c(cc2Cl)OCCO3)c1
0.851,442,1950,37.1,–,–,O=C(CN1CCCN(c2nccs2)CC1)Nc1cccc(Cl)c1
0.843,24.4,238,–,–,–,Fc1cc(-c2ccncc2)ccc1CNc1ncccn1
0.985,5.81,67.4,25.1,–,–,N#Cc1ccc(-c2csc(CCN3CCCC3=O)n2)cc1
24.8,–,–,0.14,–,–,CC(C)(O)CNc1nc(Nc2ccnc(C(F)(F)F)c2)nc(-c2cccc(C(F)(F)F)n2)n1
0.586,20,477,48.8,–,–,CN1CCc2nc(NC(=O)c3ccc(Cl)s3)sc2C1
0.465,66.2,1140,–,–,–,Cc1ccc(CCC(=O)Nc2nccc3sccc23)o1
0.515,95.4,1270,–,–,–,COc1ccc(-c2nn(C)c3ccccc23)c(OC)c1OC
–,≤ 4.74,≤ 10.7,–,–,–,Cc1cccc(CNC(=O)Cn2c(=O)oc3cccnc32)c1
0.786,≤ 4.74,≤ 10.7,54.7,–,–,Cc1nn(C)c(C)c1C(=O)NCc1ccccc1
–,150,716,37.9,–,–,CC(C)n1nccc1-c1ncccc1COc1cccc(O)c1C=O
–,187,956,–,–,–,CCOc1ccc(CC(=O)N2CCC3(CC2)Nc2cc(C)ccc2-n2cccc23)cc1OCC
–,88.1,604,–,–,–,CCOc1ccc2c(c1)cc(CN1CCSCC1)c1nn(C)c(=O)n12
0.918,–,–,0.76,–,–,Cc1csc(-c2nnc(Nc3ccc(Oc4ncccc4-c4ccnc(N)n4)cc3)c3ccccc23)c1
–,7.61,14.6,–,–,–,O=S(=O)(c1ccccc1)N(CC(F)(F)F)c1ccc(C(O)(C(F)(F)F)C(F)(F)F)cc1
65.4,30.8,228,–,–,–,CNCc1cc(N(C)C)nc(C2CCCN2C(=O)c2ccccc2-c2ccccc2)n1 (configuration not stated)
0.645,105,409,26.9,–,–,Fc1ccc(F)c(CN2CCN(Cc3ccc4c(c3)OCO4)CC2)c1
1.14,127,956,69.1,–,–,CC(C)(C)c1csc(CCNC(=O)N2CCSCC2)n1

MDR1-MDCK efflux ratio,"intrinsic clearance, human liver microsomes [mL/min/kg]","intrinsic clearance, rat liver microsomes [mL/min/kg]",aqueous solubility [µg/mL],"fraction unbound, human plasma","fraction unbound, rat plasma",Structure (SMILES)
26.5,≤ 4.74,≤ 10.7,–,–,–,CCCCN1CCc2nc3cc(C4CC4)nn3c(O)c2C1
–,–,–,40.8,–,–,CC(C)(C)c1noc(COc2ccccc2C#N)n1
0.66,114,883,25.8,–,–,COc1ccc(Cc2cccc(C3CCN(C(=O)C4CCCC4)CC3)n2)cc1
25.4,≤ 4.74,≤ 10.7,37.2,–,–,CCN1CCC(CNC(=O)c2cc(C)nc3cc(F)ccc23)CC1
1.22,21.6,75.5,–,–,–,COc1ccc(-c2cc(C(C)(C)C)nc(-c3ncccn3)n2)cc1
0.781,4.94,21.6,30.5,–,–,CCc1nnc(Oc2cccnc2)c(C#N)c1CC
2.54,≤ 4.74,154,42.4,–,–,Cn1ccc(NC(=O)[C@H]2CCCCN2C(=O)OC(C)(C)C)n1
0.542,13.6,1600,–,–,–,CCCc1nn(CCCN2CCCCC2)c(=O)o1
1.5,–,–,0.19,–,–,Cc1cccc(Nc2ccc(C3CCN(C(=O)c4cc5cc(F)ccc5n4C)CC3)nc2)n1
1.11,31.2,132,22.9,–,–,COc1ccc(-c2nnc3ccc(C(F)(F)F)cn23)cc1OC(C)C
2,6.35,553,46.7,–,–,Cc1ccccc1N(CC(=O)N(C)C)S(C)(=O)=O
1.91,≤ 4.74,82,30.6,–,–,COc1c(C)cnc(CN(C)S(N)(=O)=O)c1C
–,10.2,131,–,–,–,COCc1ncc(CN2CCC(Oc3cccc(C)c3)CC2)cn1
2.08,≤ 4.74,≤ 10.7,15.7,–,–,O=C(O)c1cc(/C=C/c2csnn2)nc2ccccc12
0.729,–,–,0.66,–,–,O=C(Nc1nncs1)c1ccc(N2CCC3(CCCCC3)C2)nc1
–,82.8,894,3.4,–,–,O=C(Nc1cccc(Cl)c1F)c1cccc(N2CCCC2=O)c1
–,–,–,80.3,–,–,CN(c1ccccc1)S(=O)(=O)c1csc(C(=O)Nc2ccc(C(=O)O)cc2)c1
9.23,≤ 4.74,22.7,63.3,–,–,O=C(Cc1ccc(F)cc1)NCCn1cccnc1=O
7.69,–,–,0.12,–,–,Cc1cc(C)c(-c2csc(NC(=O)Cn3cnnn3)n2)c(C)c1

MDR1-MDCK efflux ratio,"intrinsic clearance, human liver microsomes [mL/min/kg]","intrinsic clearance, rat liver microsomes [mL/min/kg]",aqueous solubility [µg/mL],"fraction unbound, human plasma","fraction unbound, rat plasma",Structure (SMILES)
123,15.7,541,36.8,–,–,Cc1ccc(-c2ccc(-c3nccn3CCCn3cnnc3)o2)cc1
0.866,108,1980,2.08,–,–,O=C(CCc1nnc(-c2ccsc2)o1)N1CCCc2cc(F)c(F)cc21
1.13,6.66,57.2,–,–,–,CNc1ncc(CN(C)CCN2CCCCC2)cn1
0.718,15,361,37.8,–,–,CN(Cc1ccccn1)c1nc2ccccc2o1
0.476,22,165,29.3,–,–,Clc1cccc(CNc2nc(C3CC3)no2)c1
0.594,5.17,45.6,2.85,0.0281,0.0117,O=C(Nc1ccc2ccccc2n1)c1ccc(N2CCOC2=O)cc1
14.9,≤ 4.74,15.4,–,–,–,CC(=O)N(C)[C@H]1CC2(CCN(C(=O)COc3ccc(F)cc3F)CC2)OC[C@]1(C)O
0.338,120,190,31.7,–,–,Cc1cn(CCN2CCN(c3ccccc3-c3cc(C#N)cc(C(=O)NCCCN4CCCC4)c3)CC2)c2ccccc12
31.2,12.1,553,44.9,–,–,CC(=O)NCCCOc1ccc(CN2C[C@H](Oc3cccc(C)c3)[C@@H](O)C2)cc1
11.3,33.7,486,52.2,–,–,Cc1cnc(NCc2ccccc2-n2ccnc2)nc1N(C)C
–,8.72,112,–,0.0268,0.0267,CCn1cc(C(=O)O)c(=O)c2c(N)c(F)c(NC3CCCCC3)cc21
6.91,≤ 4.74,34.5,35.3,–,–,c1ccc2c(c1)CCN(Cc1nnc3n1CCC3)C2
0.559,48,214,9.73,–,–,Cc1cc(C)cc(Oc2cc(C#N)ccn2)c1
1.24,62.6,4560,21.4,–,–,Cc1cccc(-c2nc(CN(Cc3cnn(C)c3)C(C)C)c(C)o2)c1
1.1,45.2,867,65.6,–,–,O=C(NCc1cccnc1)c1sccc1-c1ccccc1
0.551,64.2,686,33.1,–,–,Cc1cccc(NC(=O)c2ccccc2-c2ccccc2)n1
26.6,≤ 4.74,80.4,–,–,–,CCc1cc(CNC(=O)NC2CCN(CC3CCCCC3)CC2)on1
22.3,127,6150,–,–,–,Cc1ccc(F)cc1S(=O)(=O)Nc1ccc(C(=O)N2CCCC2)cc1

Structure (SMILES),MDR1-MDCK efflux ratio,"intrinsic clearance, human liver microsomes [mL/min/kg]","intrinsic clearance, rat liver microsomes [mL/min/kg]",aqueous solubility [µg/mL],"fraction unbound, human plasma","fraction unbound, rat plasma"
CC(C)(O)[C@H]1O[C@H]2CC[C@@]3(C)[C@@](O)(CC[C@H]4Cc5c([nH]c6ccccc56)[C@@]43C)C2=CC1=O,–,–,–,0.99,–,–
